Experimental data from PubChem BioAssay (NCI).
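The concentration for 50% growth inhibition is given as GI50. TGI: total growth inhibition.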

Assays:
Test in all cases: NCI-60 cell line screen, 384-well format
LOX IMVI melanoma = system: LOX IMVI melanoma
A549 NSCLC = system: A549 NSCLC
MALME-3M melanoma = system: MALME-3M melanoma
SR leukemia = system: SR leukemia
COLO 205 colon = system: COLO 205 colon
CCRF-CEM leukemia = system: CCRF-CEM leukemia
HOP-62 NSCLC = system: HOP-62 NSCLC
A498 renal = system: A498 renal
786-0 renal = system: 786-0 renal
NCI-H460 NSCLC = system: NCI-H460 NSCLC
UACC-257 melanoma = system: UACC-257 melanoma
NCI/ADR-RES ovarian = system: NCI/ADR-RES ovarian
HL-60(TB) leukemia = system: HL-60(TB) leukemia
HCT-15 colon = system: HCT-15 colon
RPMI-8226 leukemia = system: RPMI-8226 leukemia
DU-145 prostate = system: DU-145 prostate
M14 melanoma = system: M14 melanoma
SW-620 colon = system: SW-620 colon
KM12 colon = system: KM12 colon
HOP-92 NSCLC = system: HOP-92 NSCLC
MDA-MB-231 breast = system: MDA-MB-231 breast
CAKI-1 renal = system: CAKI-1 renal
NCI-H522 lung = system: NCI-H522 lung
BT-549 breast = system: BT-549 breast
MOLT-4 leukemia = system: MOLT-4 leukemia
SNB-19 CNS = system: SNB-19 CNS
IGROV1 ovarian = system: IGROV1 ovarian
OVCAR-3 ovarian = system: OVCAR-3 ovarian
RXF 393 renal = system: RXF 393 renal
MDA-MB-468 breast = system: MDA-MB-468 breast
NCI-H226 lung = system: NCI-H226 lung
U251 glioblastoma = system: U251 glioblastoma
K-562 leukemia = system: K-562 leukemia
SF-295 CNS = system: SF-295 CNS
HCC-2998 colon = system: HCC-2998 colon
HT29 colon = system: HT29 colon
SNB-75 CNS = system: SNB-75 CNS
SK-MEL-5 melanoma = system: SK-MEL-5 melanoma
SN12C renal = system: SN12C renal
EKVX NSCLC = system: EKVX NSCLC
T-47D breast = system: T-47D breast
OVCAR-4 ovarian = system: OVCAR-4 ovarian
UO-31 renal = system: UO-31 renal
HCT-116 colon = system: HCT-116 colon
SF-539 CNS = system: SF-539 CNS
PC-3 prostate = system: PC-3 prostate
HS 578T breast = system: HS 578T breast
ACHN renal = system: ACHN renal
UACC-62 melanoma = system: UACC-62 melanoma
OVCAR-8 ovarian = system: OVCAR-8 ovarian
NCI-H23 lung = system: NCI-H23 lung
SF-268 CNS = system: SF-268 CNS
NCI-H322M lung = system: NCI-H322M lung
SK-OV-3 ovarian = system: SK-OV-3 ovarian
TK-10 renal = system: TK-10 renal
MCF7 breast = system: MCF7 breast

Cn1nccc1Nc1nccc(-c2ccn([C@H](CO)c3ccc(Cl)c(F)c3)c(=O)c2)n1
GI50 (LOX IMVI melanoma): 1.08 µM | TGI (LOX IMVI melanoma): 11.7 µM | GI50 (A549 NSCLC): 25.3 µM | TGI (A549 NSCLC): > 100 µM | GI50 (MALME-3M melanoma): 0.0289 µM | TGI (MALME-3M melanoma): 0.104 µM | GI50 (SR leukemia): 47.8 µM | TGI (SR leukemia): 85.2 µM | GI50 (COLO 205 colon): 0.102 µM | TGI (COLO 205 colon): 12.9 µM | GI50 (CCRF-CEM leukemia): 4.29 µM | TGI (CCRF-CEM leukemia): 15 µM | GI50 (HOP-62 NSCLC): 19.5 µM | TGI (HOP-62 NSCLC): 47.2 µM | GI50 (A498 renal): 18.1 µM | TGI (A498 renal): 33.9 µM | GI50 ([…]-0 renal): 19.9 µM | TGI (786-0 renal): 58.7 µM | GI50 (NCI-H460 NSCLC): 20.4 µM | TGI (NCI-H460 NSCLC): 45.1 µM | GI50 (UACC-257 melanoma): 0.209 µM | TGI (UACC-257 melanoma): > 100 µM | GI50 (NCI/ADR-RES ovarian): 78.1 µM | TGI (NCI/ADR-RES ovarian): > 100 µM | GI50 (HL-60(TB) leukemia): 0.11 µM | TGI (HL-60(TB) leukemia): 13.1 µM | GI50 (HCT-15 colon): 28.6 µM | TGI (HCT-15 colon): > 100 µM | GI50 (RPMI-8226 leukemia): 16.5 µM | TGI (RPMI-8226 leukemia): 31 µM | GI50 (DU-145 prostate): 18.3 µM | TGI (DU-145 prostate): 38.1 µM | GI50 (M14 melanoma): 0.0794 µM | TGI (M14 melanoma): 10.3 µM | GI50 (SW-620 colon): 1.65 µM | TGI (SW-620 colon): 14.6 µM | GI50 (KM12 colon): 18.6 µM | TGI (KM12 colon): > 100 µM | GI50 (HOP-92 NSCLC): 14.3 µM | TGI (HOP-92 NSCLC): 28.2 µM | GI50 (MDA-MB-231 breast): 21.3 µM | TGI (MDA-MB-231 breast): > 100 µM | GI50 (CAKI-1 renal): 15.5 µM | TGI (CAKI-1 renal): > 100 µM | GI50 (NCI-H522 lung): 2.66 µM | TGI (NCI-H522 lung): 9.45 µM | GI50 (BT-549 breast): 15.1 µM | TGI (BT-549 breast): 34.6 µM | GI50 (MOLT-4 leukemia): 11.6 µM | TGI (MOLT-4 leukemia): 24 µM | GI50 (SNB-19 CNS): 16.6 µM | TGI (SNB-19 CNS): 52 µM | GI50 (IGROV1 ovarian): 14 µM | TGI (IGROV1 ovarian): 39.5 µM | GI50 (OVCAR-3 ovarian): 18.5 µM | TGI (OVCAR-3 ovarian): 54.3 µM | GI50 (RXF 393 renal): 21.2 µM | TGI (RXF 393 renal): 49 µM | GI50 (MDA-MB-468 breast): 23.7 µM | TGI (MDA-MB-468 breast): 48.5 µM | GI50 (NCI-H226 lung): 26.4 µM | TGI (NCI-H226 lung): 64.8 µM | GI50 (U251 glioblastoma): 7.42 µM | TGI (U251 glioblastoma): 20.9 µM | GI50 (K-562 leukemia): 6.93 µM | TGI (K-562 leukemia): 21.7 µM | GI50 (SF-295 CNS): 54 µM | TGI (SF-295 CNS): > 100 µM | GI50 (HCC-2998 colon): 0.565 µM | TGI (HCC-2998 colon): 12.1 µM | GI50 (HT29 colon): 0.443 µM | TGI (HT29 colon): 20.7 µM | GI50 (SNB-75 CNS): 22.6 µM | TGI (SNB-75 CNS): 45.3 µM | GI50 (SK-MEL-5 melanoma): 0.409 µM | TGI (SK-MEL-5 melanoma): 22.1 µM | GI50 (SN12C renal): 1.67 µM | TGI (SN12C renal): 4.67 µM | GI50 (EKVX NSCLC): 76.5 µM | TGI (EKVX NSCLC): > 100 µM | GI50 (T-47D breast): 11.1 µM | TGI (T-47D breast): 54.5 µM | GI50 (OVCAR-4 ovarian): > 100 µM | TGI (OVCAR-4 ovarian): > 100 µM | GI50 (UO-31 renal): 30 µM | TGI (UO-31 renal): > 100 µM | GI50 (HCT-116 colon): 1.78 µM | TGI (HCT-116 colon): 11.8 µM | GI50 (SF-539 CNS): 1.76 µM | TGI (SF-539 CNS): 3.55 µM | GI50 (PC-3 prostate): 29.8 µM | TGI (PC-3 prostate): 84.3 µM | GI50 (HS 578T breast): 18.8 µM | TGI (HS 578T breast): 34.1 µM | GI50 (ACHN renal): 45 µM | TGI (ACHN renal): > 100 µM | GI50 (UACC-62 melanoma): 0.0678 µM | TGI (UACC-62 melanoma): 14.8 µM | GI50 (OVCAR-8 ovarian): 3.44 µM | TGI (OVCAR-8 ovarian): 10.7 µM | GI50 (NCI-H23 lung): 0.899 µM | TGI (NCI-H23 lung): 24 µM | GI50 (SF-268 CNS): 38.1 µM | TGI (SF-268 CNS): > 100 µM | GI50 (NCI-H322M lung): 15.6 µM | TGI (NCI-H322M lung): > 100 µM | GI50 (SK-OV-3 ovarian): 15.9 µM | TGI (SK-OV-3 ovarian): 33.3 µM | GI50 (TK-10 renal): 21.2 µM | TGI (TK-10 renal): 51.7 µM | GI50 (MCF7 breast): 37.4 µM | TGI (MCF7 breast): > 100 µM
